The test deals with R6/2 mice. Kind of test: Western blot of DARPP-32, PSD95 and BDNF in striatal lysates. The format is in vivo, mouse. The text has this:
FIG. 32A-32C: Histograms of Quantified Western Blot Results for Protein Levels (blots not shown). Actin was used as the loading control in the Western Blot, results are therefore depicted as ratios of the protein of interest signal relative to the actin signal in each sample. FIG. 32A depicts DARPP-32 levels in striatal lysates. p-value for: WT veh as compared to R62 veh: <0.0001; WT+P1 as compared to R62 veh: <0.0001; R62 veh as compared to R62+HV3-TAT: 0.0493; R62 veh as compared to R62+P1: 0.0027; R62+P1 as compared to R62+HV3-TAT: 0.7733. FIG. 32B depicts PSD95 levels in striatal lysates. p-value for: WT veh as compared to R62 veh: 0.0034; WT+P1 as compared to R62 veh: <0.0001; R62 veh as compared to R62+HV3-TAT: 0.0191; R62 veh as compared to R62+P1: <0.0001; R62+P1 as compared to R62+HV3-TAT: 0.1442. FIG. 32C depicts BDNF levels in striatal lysates. p-value for: WT veh as compared to R62 veh: <0.0001; WT+P1 as compared to R62 veh: <0.0001; R62 veh as compared to R62+HV3-TAT: 0.0120; R62 veh as compared to R62+P1: <0.0001; R62+P1 as compared to R62+HV3-TAT: 0.0257.
In vivo Efficacy Methods—Levels of Proteins of Interest: To further assess the efficacy of P1 in modulating HD neuropathology, the levels of cAMP-regulated phosphoprotein 32 kDa (DARPP-32), post-synaptic density protein (PSD95), and brain derived neurotrophic factor (BDNF) were determined in medium spiny neurons, each of which are decreased in the striatum of HD patients and R6/2 mouse models. Striatal lysates were generated from frozen striatal tissue from un-perfused sacrificed mice. Using a plate reader, protein concentrations were determined by protein assay dye (Bio-Rad). Protein stocks in lysis buffer were mixed with Laemmli buffer, loaded on SDS-PAGE, and transferred onto nitrocellulose membranes (Invitrogen). Membranes were probed with the primary antibodies for actin, DARPP-32, PSD95, and BDNF, and respective IgG-HRP secondary antibodies, followed by visualization of HRP with a blot scanner.
On the technique in general: Immunoblotting shows a protein as a band on a membrane.

Experimental findings from patent US20240110004A1 (Northwestern University, priority 2022, published 2024) are described below.

Where no end group is shown, it is not given here.

For the substance “P1: PLP homopolymer having peptide side chains of SEQ ID: 1 (HVLVMSATRR), made by ROMP of norbornene peptide monomer M1 (also: side chains of polynorbornene homopolymer (PLP, ROMP of norbornene peptide monomer))”, under “compared to the saline control”, the “BDNF protein levels in striatal lysates” value is listed as “Significant increases” and the “PSD95 protein levels in striatal lysates” value is “Significant increases”. Where the note is “over saline control”, the “DARPP-32 levels in striatal lysates (immunoblotting)” value is “significantly increased DARPP-32 levels”.
